According to patent US8481005B2, “Methods to prevent cytotoxicity using N-acetyl-cysteine” (priority 2006, dated 2013):

How the values were obtained:
RAW 264.7 cells [1] = system: RAW 264.7 cells
Procedure: (§1) RAW 264.7 cells (murine macrophages) were obtained from American Type Culture Collection (ATCC) and were cultured in a 5% CO2 atmosphere in DMEM (purchased from Cellgro (Herndon, Va.)) containing 10% FCS, 1% penicillin-streptomycin, 1% sodium pyruvate, 1% non essential amino acids and 1% glutamine. THP-1 cells (human macrophages) were obtained from ATCC and were cultured under the same conditions, with RMPI 1640 containing 10% FCS, 1% penicillin-streptomycin, 1% sodium pyruvate and 1% non essential amino acids.
(§2) Dose-dependent apoptosis was measured by FITC-Annexin V/Propidium iodide kits (Miami, Fla.). Cells were plated in six-well/twelve well plates. […] Cells were washed twice with PBS and centrifuged at about 2000 rpm for about 5 minutes and resuspended in binding buffer (provided in the kit) along with FITC-Annexin V/Propidium iodide (PI) according to manufacturer's instructions. After incubating on ice (light protected) for about 15 minutes, samples were analyzed by flow cytometry. Flow cytometric analysis was performed using a flow cytometer equipped with a single 488-nm argon laser. Dead cell fragments were gated out by forward and side scatter analysis. […] Forward and side scatter were used to gate out cellular fragments.
(§3) After an overnight incubation, the levels of cell death were determined using PI staining of ethanol fixed cells. Specifically, cells were washed twice with PBS before they were treated with 70% ethanol (250 μl). Ethanol was added dropwise and then the cells were incubated on ice for 30 minutes. The cells were then washed twice with PBS and resuspended in 1 ml PBS to which PI at a final concentration of 1 mg/ml was added. The samples were then analyzed using the flow cytometer.
(§4) In FIGS. 2A and 2B, the numbers in each histogram represent the percentage of Sub Go/G1 fragmented cell populations. Ten thousand events were analyzed for each sample.

THP-1 cells = system: THP-1 cells
Procedure: as §1, §2, §3, §4

HaCaT cells = assay: PI/Annexin V cell death in HaCaT skin keratinocytes; assay type: cell-based; details: HEMA 0.082M to 0.00164M alone or with NAC 20 mM, overnight
Procedure: Ten thousand events were analyzed for each sample. (FIG. 5)

GAPDH = GAPDH protein in dental pulp stromal cells (KDalert GAPDH assay kit); assay type: cell-based; details: HEMA (0.082M) alone or with NAC 20 mM, 4 hours
Procedure: After 4 hours of incubation the protein levels of GAPDH were determined using a KDalert GAPDH assay kit (Ambion). This assay is a fluorescent based assay which measures the conversion of NAD+ to NADH catalyzed by GAPDH.

[2] = system: HEp2 cells co-cultured with PBMCs; assay: VEGF in co-cultures of HEMA/NAC treated HEp2 cells with PBMCs (multiplex cytokine array); assay type: cell-based, human; parameters: unit not given here
[3] = system: UCLA-2 cells (a primary oral tumor line); assay: VEGF release from UCLA-2 cells (Table 4); assay type: cell-based
Procedure: (§5) The cells were then grown in media containing β-glycerophosphate and ascorbic acid until they reached confluency. […] Supernatants were measured for VEGF release.

mesenchymal stem cells = assay: Cell death of mesenchymal stem cells (FITC-Annexin V and PI); assay type: cell-based
Text: Treated mesenchymal stem cells were then removed and cell death determined using FITC-Annexin V and PI staining.

[4] = system: human dental pulp stromal cells; assay: VEGF release from human dental pulp stromal cells (Table 4); assay type: cell-based
Procedure: as §5

Jurkat cells = assay: Mitochondrial membrane potential in Jurkat cells (DiOC6); assay type: cell-based; details: HEMA alone or with NAC 20 mM
Procedure: The membrane potential was assessed by staining with DiOC6 which is a positively charged dye. At low concentrations, it accumulates in mitochondria due to their large negative membrane potential. However when the membrane potential is disrupted there is less binding of this dye.

Jurkat T cells = assay: Cell death in Jurkat T cells (PI/FITC-Annexin V); assay type: cell-based; details: 0.082M-0.0082M HEMA and/or NAC 20 mM simultaneously; overnight
Procedure: After an overnight incubation the levels of cell death in Jurkat T cells were determined using dual staining with PI/FITC-Annexin V as described previously (FIG. 19B). 10,000 events were analyzed for each sample. Similar results were obtained when apoptosis was assessed by PI staining of ethanol fixed Jurkat T cells. • 2. Decreased Levels of Full Length Caspase 9 and Caspase 3 in HEMA-Treated Keratinocytes

[5] = system: HEp2 cells co-cultured with PBMCs; assay: VEGF in co-cultures of HEMA/NAC treated HEp2 cells with PBMCs (multiplex cytokine array); assay type: cell-based, human; parameters: unit not given here; remark: listed apart in the source
Procedure: Treatment with NAC inhibits HEMA-mediated cell death and cytotoxicity. Thus, its ability to protect the function of cells in the presence of HEMA was also evaluated further. […] The cells were trypsinized and washed 4 times with 1×PBS before they were co-cultured with PBMCs obtained from a healthy individual. A 4:1 ratio of effector to target cells (PBMC:HEp2) were used in these cultures. PBMCs were treated with and without IL-2 before they were co-cultured with HEp-2 cells. The supernatants were then removed from the co-cultures after an overnight incubation and analyzed using the FAST QUANT multiplex cytokine array kit to determine the levels of secreted cytokines.

[6] = system: human dental pulp stromal cells; assay: Human dental pulp stromal cells, 4 hour treatment: VEGF ELISA and apoptosis; assay type: cell-based; details: HEMA alone or with NAC 20 mM, then overnight
Procedure: After this treatment cells were washed and incubated overnight.

[7] = system: human dental pulp stromal cells; assay: VEGF by ELISA, human dental pulp stromal cells, NAC versus vitamin E (Table 5); assay type: cell-based; details: 4 hours
Procedure: Following the 4 hour incubation, cells were analyzed for apoptosis using FTIC-Annexin V and PI.
Dental pulp stromal cells were then treated as described in the preceding paragraph with supernatants removed and assayed for VEGF levels by ELISA following the 4 hour incubation.

Caspase 3 = Caspase 3 induction in Jurkat cells; assay type: cell-based; details: HEMA alone or with NAC 20 mM
[8] = system: human mesenchymal stem cells; assay: VEGF secretion of human mesenchymal stem cells (ELISA); assay type: cell-based; details: HEMA alone or with NAC 20 mM, 4 hours, then overnight
RAW 264.7 cells [9] = assay: Morphological changes in RAW 264.7 cells (inverted microscope); assay type: cell-based, murine; details: HEMA alone or with simultaneous NAC 20 mM, overnight
Text: Peripheral Blood Mononuclear Cells

[10] = HEMA 0.00164M, alone or with NAC
[11] = HEMA 0.0082M, alone or with NAC
[12] = HEMA 0.0164M, alone or with NAC
[13] = NAC 20 mM pretreatment about 8 hours or simultaneous, overnight

C=C(C)C(=O)OCCO [HEMA, hydroxyethyl methacrylate]
HEMA-mediated cell death and cytotoxicity (FITC-Annexin V/PI) (RAW 264.7 cells [1]; HEMA about 18 hours): detected at millimole to micromole concentrations | HEMA-mediated cell death and cytotoxicity (FITC-Annexin V/PI) (THP-1 cells; HEMA about 18 hours): detected at millimole to micromole concentrations | apoptotic cell death (PI/Annexin V) (HaCaT cells): dose dependent induction of apoptotic cell death | GAPDH protein expression (GAPDH): significant decrease in GAPDH protein expression | VEGF ([2]; HEp2 +0.00164M HEMA, −/+NAC, Patient PBMC +IL-2): 7760 | VEGF ([2]; HEp2 +0.00164M HEMA, −/+NAC, Patient PBMC −IL-2): 6550 | VEGF ([2]; HEp2 +0.0164M HEMA, −/+NAC 20 mM, about 18 hours, Patient PBMC −IL-2): 1161 | VEGF ([2]; HEp2 +0.0164M HEMA, −/+NAC, Patient PBMC +IL-2): 379 | UCLA-2 (VEFG secretion) [3, 10]: 3258.8 pg/mL | UCLA-2 (VEFG secretion) [3, 11]: 319.6 pg/mL | UCLA-2 (VEFG secretion) [3, 12]: 180.2 pg/mL | cells that underwent cell death (mesenchymal stem cells; mesenchymal stem cells, 0.0164M HEMA): 86.1% | Human dental pulp stromal cells (VEFG secretion) [4, 10]: 163.7 pg/mL | Human dental pulp stromal cells (VEFG secretion) [4, 11]: 125.1 pg/mL | Human dental pulp stromal cells (VEFG secretion) [4, 12]: 113.4 pg/mL | mitochondrial membrane potential (Δψm) (Jurkat cells): decrease in mitochondrial membrane potential | apoptotic cell death (Jurkat T cells): undergo apoptotic cell death | VEGF ([5]; HEp2 +0.00164M HEMA, −/+NAC, Control PBMC +IL-2): 6923 | VEGF ([5]; HEp2 +0.00164M HEMA, −/+NAC, Control PBMC −IL-2): 6640 | VEGF ([5]; HEp2 +0.00164M HEMA, −/+NAC, No PBMC): 7139 | VEGF ([5]; HEp2 +0.0164M HEMA, −/+NAC, Control PBMC +IL-2): 323 | VEGF ([5]; HEp2 +0.0164M HEMA, −/+NAC, Control PBMC −IL-2): 582 | VEGF ([5]; HEp2 +0.0164M HEMA, −/+NAC, No PBMC): 294 | VEGF secretion [6]: large effects | cell death [6]: large effects | VEGF levels by ELISA, Human dental pulp stromal cells ([7]; HEMA 0.00164M, alone or with NAC and/or vitamin E): 57.26 | VEGF levels by ELISA, Human dental pulp stromal cells ([7]; HEMA 0.0082M, alone or with NAC and/or vitamin E): 72.6 pg/mL | VEGF levels by ELISA, Human dental pulp stromal cells ([7]; HEMA 0.0164M, alone or with NAC (20 mM) and/or vitamin E (5 mM)): 73.79 | Caspase 3 induction (Caspase 3): increase in Caspase 3 induction | VEGF secretion [8]: significantly decreased secretion of VEGF | morphological changes (decreased size, blebbing, apoptotic bodies) (RAW 264.7 cells [9]): morphological changes indicative of apoptosis

CC(=O)N[C@@H](CS)C(=O)O [NAC, N-acetyl-cysteine]
inhibition of HEMA-mediated cell death (Sub Go/G1, PI staining) (RAW 264.7 cells [1]; [13]): inhibited HEMA-mediated cell death | inhibition of HEMA-mediated cell death (Sub Go/G1, PI staining) (THP-1 cells; [13]): inhibited HEMA-mediated cell death | apoptotic cell death (PI/Annexin V) (HaCaT cells): considerably decreased the percentages of cells positive for PI/Annexin V staining | GAPDH protein expression (GAPDH): preventing the decrease in GAPDH protein expression | VEGF ([2]; HEp2 −HEMA (+NAC 20 mM), Patient PBMC −IL-2): 5648 | VEGF ([2]; HEp2 −HEMA (+NAC), Patient PBMC +IL-2): 5805 | UCLA-2 (VEFG secretion) ([3]; NAC alone, no HEMA): 2831.9 pg/mL | prevention of HEMA-mediated cell death (mesenchymal stem cells; NAC 20 mM, 18 hours): can prevent HEMA-mediated cell death | Human dental pulp stromal cells (VEFG secretion) ([4]; NAC alone, no HEMA): 1804.1 pg/mL | mitochondrial membrane potential (Δψm) (Jurkat cells): restored mitochondrial membrane potential | apoptotic cell death (Jurkat T cells): significantly blocked | VEGF ([5]; HEp2 −HEMA (+NAC), Control PBMC +IL-2): 5376 | VEGF ([5]; HEp2 −HEMA (+NAC), Control PBMC −IL-2): 5260 | VEGF ([5]; HEp2 −HEMA (+NAC), No PBMC): 4714 | VEGF secretion [6]: strongly if not totally ameliorated | cell death [6]: strongly if not totally ameliorated | VEGF levels by ELISA, Human dental pulp stromal cells ([7]; no HEMA, NAC (20 mM) and/or vitamin E (5 mM)): 1532.4 | Caspase 3 induction (Caspase 3): decreased the induction of caspase 3 expression | VEGF secretion [8]: prevented the HEMA-mediated decrease | morphological changes (decreased size, blebbing, apoptotic bodies) (RAW 264.7 cells [9]): inhibited the occurrence of these morphological changes
